Laboratory results reported in patent publication US9902728B2, “Pyrrolo and pyrazolopyrimidines as ubiquitin-specific protease 7 inhibitors” (Forma Therapeutics, Inc., priority 2014, dated 2018).

These compounds were tested against T1, USP7 (Homo sapiens, UniProt Q93009) (assay: USP7 Assay A (Ubitquin-Rhodamine 110 Assay)). Settings: USP7_IC50, USP7 activity in USP7 assay A and B (table does not say which assay per compound).
T1 construct: USP7, construct USP7 (208-1102) 6*His, Viva Biotech; 6xHis (C); purchased Viva Biotech
T1 sequence (Q93009 208-1102): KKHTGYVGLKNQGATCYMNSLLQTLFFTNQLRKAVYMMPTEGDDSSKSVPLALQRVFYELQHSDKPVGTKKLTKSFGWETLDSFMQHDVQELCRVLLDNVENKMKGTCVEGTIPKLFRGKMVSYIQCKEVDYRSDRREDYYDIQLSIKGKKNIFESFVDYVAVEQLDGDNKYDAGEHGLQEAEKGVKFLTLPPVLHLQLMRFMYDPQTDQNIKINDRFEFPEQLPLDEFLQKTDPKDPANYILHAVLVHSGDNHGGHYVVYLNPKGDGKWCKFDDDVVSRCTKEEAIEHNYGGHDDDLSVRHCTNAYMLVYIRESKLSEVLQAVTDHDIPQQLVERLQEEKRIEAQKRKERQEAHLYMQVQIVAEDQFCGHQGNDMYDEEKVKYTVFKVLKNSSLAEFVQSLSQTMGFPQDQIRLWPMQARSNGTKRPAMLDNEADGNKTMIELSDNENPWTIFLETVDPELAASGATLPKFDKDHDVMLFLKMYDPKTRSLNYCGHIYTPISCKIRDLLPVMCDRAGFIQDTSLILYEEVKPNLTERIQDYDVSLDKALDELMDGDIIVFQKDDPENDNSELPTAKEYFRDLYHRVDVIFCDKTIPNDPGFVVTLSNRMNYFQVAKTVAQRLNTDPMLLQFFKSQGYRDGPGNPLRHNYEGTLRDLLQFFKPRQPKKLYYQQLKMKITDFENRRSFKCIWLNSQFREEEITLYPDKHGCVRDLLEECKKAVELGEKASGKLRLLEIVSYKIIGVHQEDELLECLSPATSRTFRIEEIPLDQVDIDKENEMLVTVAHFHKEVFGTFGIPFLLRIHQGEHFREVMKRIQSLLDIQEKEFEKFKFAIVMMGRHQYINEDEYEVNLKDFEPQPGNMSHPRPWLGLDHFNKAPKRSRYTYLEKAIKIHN
Assay type: biochemical
Procedure: Each assay was performed in a final volume of 15 μL in assay buffer containing 20 mM Tris-HCl (pH 8.0, (1M Tris-HCl, pH 8.0 solution; Corning 46-031-CM)), 1 mM GSH (L-Glutathione reduced; Sigma #G4251), 0.03% BGG ([…], Sigma, #G7516-25G), and 0.01% Triton X-100 (Sigma, #T9284-10L). […] 5 μL of 2× enzyme was added to assay plates (pre-stamped with compound) preincubated with USP7 for 30 minutes and then 5 μL of 2×Ub-Rh110 was added to assay plates. […] Fluorescence was read on the Envision (Excitation at 485 nm and Emission at 535 nm; Perkin Elmer) or on the PheraSTAR (Excitation at 485 nm and Emission at 535 nm; BMG Labtech).
Data from USP7 Assays A and B were reported as percent inhibition (inh) compared with control wells based on the following equation: % inh=1−((FLU−AveLow)/(AveHigh−AveLow)) where FLU=measured Fluorescence (See Tables 6-10). AveLow=average Fluorescence of no enzyme control (n=16). AveHigh=average Fluorescence of DMSO control (n=16). […] Data is fitted using the Levenburg Marquardt algorithm.
For `CN1C2CCC1CN(c1cccc(-n3ncc4c(=O)n(CC5(O)CCN(C(=O)C6(C)CC6)CC5)cnc43)c1)C2` [Compound I-1644], the IC50 was less than 200 nM.

Same assay, conditions: USP7 activity in USP7 assay A and B (table does not say which assay per compound); read-out: USP7_IC50
For `O=C(C1CCC(n2cccn2)CC1)N1CCC(O)(Cn2cnc3c(cnn3-c3ccc(F)cc3)c2=O)CC1` (stereo not shown) [Compound I-549], the IC50 was 1000 to 10000 nM.
Compound `O=C(c1cccn1Cc1ccc(F)cc1)N1CCC(O)(Cn2cnc3c(cnn3-c3ccc(F)cc3)c2=O)CC1` [Compound I-558] has an IC50 of 200 to 1000 nM.
For `O=C(C1CCC(Oc2ccc(F)cn2)CC1)N1CCC(O)(Cn2cnc3c(cnn3-c3ccccc3)c2=O)CC1` (stereo not shown) [Compound I-743], the IC50 was 1000 to 10000 nM.
`O=C(C[C@@H](C(F)F)n1ccc(F)n1)N1CCC(O)(Cn2cnc3c(cnn3-c3ccc(C(F)(F)F)cc3)c2=O)CC1` [Compound I-1037] gave an IC50 of 1000 to 10000 nM.
In the case of `CC1(O)CCN(c2ccc(-n3ncc4c(=O)n(CC5(O)CCN(C(=O)c6ccc(F)cc6)CC5)cnc43)cc2)C1` (stereo not shown) [Compound I-1168], the IC50 is reported as 200 to 1000 nM.
For `O=C(c1cnc(NC2CC2)o1)N1CCC(O)(Cn2cnc3c(cnn3-c3ccc(Cl)cc3)c2=O)CC1` [Compound I-771], the IC50 was 200 to 1000 nM.
Work on `O=C(c1ccc(F)cc1)N1CCC(O)(Cn2cnc3c(cnn3-c3ccc(OCC4(F)CCC4)cc3)c2=O)CC1` [Compound I-696] yielded an IC50 of 200 to 1000 nM.
Work on `O=C(c1ccc(-n2cncn2)cc1)N1CCC(O)(Cn2cnc3c(cnn3-c3ccc(Cl)cc3)c2=O)CC1` [Compound I-1090] yielded an IC50 of 200 to 1000 nM.
`C[C@]1(O)CCN(c2ccc(-n3ncc4c(=O)n(CC5(O)CCN(C(=O)C[C@H](C(F)F)n6cccn6)CC5)cnc43)cc2)C1` [Compound I-833] showed an IC50 of less than 200 nM.
`O=C(C[C@H](C(F)F)n1ccc(F)n1)N1CCC(O)(Cn2cnc3c(cnn3-c3ccc(C(F)(F)F)cc3)c2=O)CC1` [Compound I-1036] gave an IC50 of less than 200 nM.
Compound `O=C(C1CCC(OC2CCOCC2)CC1)N1CCC(O)(Cn2cnc3c(cnn3-c3ccc(F)cc3)c2=O)CC1` (stereo not shown) [Compound I-926] has an IC50 of 200 to 1000 nM.
`O=C(C[C@@H](C(F)F)n1cccn1)N1CCC(O)(Cn2cnc3c(cnn3-c3ccc(-c4ccccc4)cc3)c2=O)CC1` [Compound I-646] was tested, and the IC50 was 1000 to 10000 nM.

Same assay, conditions: USP7 assay A and B (table does not say which assay per compound); read-out: USP7_IC50
In the case of `C#CC(=O)NC1CC(C(=O)N2CCC(O)(Cn3cnc4c(cnn4-c4ccc(F)cc4)c3=O)CC2)C1` (stereo not shown) [Compound I-950], the IC50 is reported as 1000 to 10000 nM.
`CN1CCCCC1CCc1ccc(-n2ncc3c(=O)n(CC4(O)CCN(C(=O)c5ccc(F)cc5)CC4)cnc32)cc1` (stereo not shown) [Compound I-1007, 5-((1-(4-fluorobenzoyl)-4-hydroxypiperidin-4-yl)methyl)-1-(4-(2-(1-methylpiperidin-2-yl)ethyl)phenyl)-1H-pyrazolo[3,4-d]pyrimidin-4(5H)-one] gave an IC50 of 1000 to 10000 nM.
For `O=C(c1ccc(OC2CC2)cc1)N1CCC(O)(Cn2cnc3c(cnn3-c3ccc(F)cc3)c2=O)CC1` [Compound I-283], the IC50 was 1000 to 10000 nM.
Work on `CC(CC(=O)N1CCC(O)(Cn2cnc3c(cnn3C)c2=O)CC1)c1ccc(F)cc1` (stereo not shown) [Compound I-78] yielded an IC50 of 200 to 1000 nM.
`O=C(c1ccc(CN2CCCC2)cc1)N1CCC(O)(Cn2cnc3c(cnn3-c3ccc(F)cc3)c2=O)CC1` [Compound I-529] was tested, and the IC50 was 1000 to 10000 nM.
`O=C(C1CC1)N1CCC(O)(Cn2cnc3c(cnn3-c3cccc(-c4cccc(Cl)c4)c3)c2=O)CC1` [Compound I-347] showed an IC50 of 1000 to 10000 nM.
In the case of `CC(=O)NC1CCN(c2ccc(-n3ncc4c(=O)n(CC5(O)CCN(C(=O)C6CC6)CC5)cnc43)cc2)CC1` [Compound I-1208], the IC50 is reported as 1000 to 10000 nM.
For `COc1ccc(C(=O)N2CCC(O)(C(C)n3cnc4c(cnn4-c4ccc(F)cc4)c3=O)CC2)cc1` (stereo not shown) [Compound I-614], the IC50 was greater than 10000 nM.
With `CN(C)C(=O)N1CCC(O)(Cn2cnc3c(cnn3-c3ccc(Oc4ccccc4)cc3)c2=O)CC1` [Compound I-500] the IC50 was greater than 10000 nM.
`O=C(c1ccc(Cl)c(Cl)c1)N1CCC(O)(Cn2cnc3c(cnn3-c3ccccc3)c2=O)CC1` [Compound I-213] showed an IC50 of 1000 to 10000 nM.
Compound `CC(C)N1CCC(c2ccc(-n3ncc4c(=O)n(CC5(O)CCN(C(=O)N(C)C)CC5)cnc43)cc2)CC1` [Compound I-992] has an IC50 of 1000 to 10000 nM.
`C[C@H](CC(=O)N1CCC(O)(Cn2cnc3c(cnn3-c3ccc(-c4ccc(F)cc4)cc3)c2=O)CC1)n1cccn1` [Compound I-653] showed an IC50 of 200 to 1000 nM.
